pKi: −log10 of the molar value. Like-named read-outs stand apart in the source and are kept apart here.
Columns and labels:
[1] = target: human orexin 2 receptor (Homo sapiens (Human), UniProt O43614); experiment: Human orexin 2 receptor radioligand binding (competitive, [3H]-EMPA, HEK293 cell preparations)
[2] = target: human orexin 1 receptor (Homo sapiens (Human), UniProt O43613); experiment: Human orexin 1 receptor radioligand binding (competitive, [3H]-SB674042, CHO cell preparations)
[3] = human orexin 2 receptor, [3H]-EMPA competition binding, read-out: hOX2 Ki (nm)
[4] = human orexin 1 receptor, [3H]-SB674042 competition binding, read-out: hOX1 Ki (nm)

Sequence of human orexin 1 receptor (O43613 whole entry): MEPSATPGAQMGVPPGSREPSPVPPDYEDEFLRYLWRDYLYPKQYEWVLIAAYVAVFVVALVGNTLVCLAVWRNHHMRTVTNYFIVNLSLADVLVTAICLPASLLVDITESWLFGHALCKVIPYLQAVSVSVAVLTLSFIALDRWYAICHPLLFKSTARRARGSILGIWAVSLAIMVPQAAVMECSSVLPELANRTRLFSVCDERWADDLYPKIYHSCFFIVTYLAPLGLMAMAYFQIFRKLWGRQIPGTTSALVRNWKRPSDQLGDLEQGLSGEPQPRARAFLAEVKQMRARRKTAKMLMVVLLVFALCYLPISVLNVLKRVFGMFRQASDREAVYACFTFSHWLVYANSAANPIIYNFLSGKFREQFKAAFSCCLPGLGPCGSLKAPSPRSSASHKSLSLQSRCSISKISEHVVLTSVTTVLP
Sequence of human orexin 2 receptor (O43614 whole entry): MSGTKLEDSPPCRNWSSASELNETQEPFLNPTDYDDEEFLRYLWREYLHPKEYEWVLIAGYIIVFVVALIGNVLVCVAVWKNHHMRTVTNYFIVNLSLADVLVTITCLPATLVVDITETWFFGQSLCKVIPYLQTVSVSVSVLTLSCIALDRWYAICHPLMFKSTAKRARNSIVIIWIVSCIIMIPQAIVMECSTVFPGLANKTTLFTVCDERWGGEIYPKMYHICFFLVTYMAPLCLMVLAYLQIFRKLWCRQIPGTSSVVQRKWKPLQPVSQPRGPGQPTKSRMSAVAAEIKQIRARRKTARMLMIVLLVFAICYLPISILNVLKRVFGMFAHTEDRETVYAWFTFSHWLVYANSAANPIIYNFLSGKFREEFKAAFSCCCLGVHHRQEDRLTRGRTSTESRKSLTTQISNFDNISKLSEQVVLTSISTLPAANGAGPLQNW

| SMILES | pKi [1, 3] | pKi [2, 4] | pKi ([1]; hOX2 Ki (nm)) | pKi ([2]; hOX1 Ki (nm)) |
| --- | --- | --- | --- | --- |
| O=C(c1cccc2ccccc12)N1C2CCC1C(COc1ccc(F)cn1)C2 (racemic) [Example 24, (±)-2-(((5-fluoropyridin-2-yl)oxy)methyl)-7-azabicyclo[2.2.1]heptan-7-yl)(naphthalen-1-yl)methanone] | 6.79 | 6.91 | – | – |
| Cc1cccc(OCC2CC3CCC2N3C(=O)c2ccc(C)nc2-n2nccn2)n1 (racemic) [Example 139, (±)-(6-methyl-2-(2H-1,2,3-triazol-2-yl)pyridin-3-yl)(2-(((6-methylpyridin-2-yl)oxy)methyl)-7-azabicyclo[2.2.1]heptan-7-yl)methanone] | 5.19 | 5.36 | – | – |
| O=C(c1ccccc1-c1cccs1)N1C2CCC1C(COc1ccc(F)cn1)C2 (racemic) [Example 11, (±)-(2-(((5-fluoropyridin-2-yl)oxy)methyl)-7-azabicyclo[2.2.1]heptan-7-yl)(2-(thiophen-2-yl)phenyl)methanone] | – | – | 7.92 | 8.00 |
| Cc1ccc(-n2nccn2)c(C(=O)N2C3CCC2C(COc2ncccc2C(F)(F)F)C3)c1 (racemic) [Example 15, (±)-(5-methyl-2-(2H-1,2,3-triazol-2-yl)phenyl)(2-(((3-(trifluoromethyl)pyridin-2-yl)oxy)methyl)-7-azabicyclo[2.2.1]heptan-7-yl)methanone] | 6.92 | – | – | 7.25 |
| Cc1ccc(C(=O)N2C3CCC2C(COc2nccc(C(F)(F)F)n2)C3)c(-n2ccnn2)n1 (racemic) [Example 132, (±)-(6-methyl-2-(1H-1,2,3-triazol-1-yl)pyridin-3-yl)(2-(((4-(trifluoromethyl)pyrimidin-2-yl)oxy)methyl)-7-azabicyclo[2.2.1]heptan-7-yl)methanone] | 5.13 | – | – | ≤ 5.00 |
| CCOc1ccc2ccccc2c1C(=O)N1C2CCC1C(COc1nc(C)cc(C)n1)C2 (racemic) [Example 41, (±)-(2-(((4,6-dimethylpyrimidin-2-yl)oxy)methyl)-7-azabicyclo[2.2.1]heptan-7-yl)(2-ethoxynaphthalen-1-yl)methanone] | 7.66 | 7.46 | – | – |
| Cc1ccc(OCC2CC3CCC2N3C(=O)c2cc(C)ccc2-n2nccn2)nc1 (racemic) [Example 167, (±)-5-methyl-2-(2H-1,2,3-triazol-2-yl)phenyl)(2-(((5-methylpyridin-2-yl)oxy)methyl)-7-azabicyclo[2.2.1]heptan-7-yl)methanone] | – | 8.05 | 7.85 | – |
| Cc1cc(C)nc(OCC2CC3CCC2N3C(=O)c2c(C)noc2-c2ccccc2)n1 (racemic) [Example 40, (±)-2-(((4,6-dimethylpyrimidin-2-yl)oxy)methyl)-7-azabicyclo[2.2.1]heptan-7-yl)(3-methyl-5-phenylisoxazol-4-yl)methanone] | 5.92 | 5.30 | – | – |
| Cc1ccc(C(=O)N2C3CCC2C(COc2cccc(C(F)(F)F)n2)C3)c(-n2nccn2)n1 (racemic) [Example 143, (±)-(6-methyl-2-(2H-1,2,3-triazol-2-yl)pyridin-3-yl)(2-(((6-(trifluoromethyl)pyridin-2-yl)oxy)methyl)-7-azabicyclo[2.2.1]heptan-7-yl)methanone] | – | 5.41 | 5.34 | – |
| Cc1ccc(C(=O)N2C3CCC2C(COc2nccc(C(F)(F)F)n2)C3)c(-n2nccn2)n1 (racemic) [Example 131, (±)-(6-methyl-2-(2H-1,2,3-triazol-2-yl)pyridin-3-yl)(2-(((4-(trifluoromethyl)pyrimidin-2-yl)oxy)methyl)-7-azabicyclo[2.2.1]heptan-7-yl)methanone] | – | – | ≤ 5.00 | ≤ 5.00 |
| O=C(c1cccc(F)c1-n1nccn1)N1C2CCC1C(COc1ccccn1)C2 (racemic) [Example 129, (±)-(3-fluoro-2-(2H-1,2,3-triazol-2-yl)phenyl)(2-((pyridin-2-yloxy)methyl)-7-azabicyclo[2.2.1]heptan-7-yl)methanone] | 6.00 | 6.72 | – | – |
| O=C(c1ccccc1-n1nccn1)N1[C@@H]2CC[C@H]1[C@H](Nc1cnc(C(F)(F)F)cn1)C2 [Example 181, (2-(2H-1,2,3-triazol-2-yl)phenyl)((1S,2R,4R)-2-((5-(trifluoromethyl)pyrazin-2-yl)amino)-7-azabicyclo[2.2.1]heptan-7-yl)methanone] | – | – | 6.15 | 7.55 |
| Cc1noc(-c2ccccc2C(=O)N2C3CCC2C(COc2cnc4ccccc4n2)C3)n1 (racemic) [Example 149, (±)-(2-(3-methyl-1,2,4-oxadiazol-5-yl)phenyl)(2-((quinoxalin-2-yloxy)methyl)-7-azabicyclo[2.2.1]heptan-7-yl)methanone] | 5.70 | 6.66 | – | – |
| Cc1ccc(-n2nccn2)c(C(=O)N2C3CCC2C(COc2nc4ccccc4nc2C(F)(F)F)C3)c1 (racemic) [Example 21, (±)-(5-methyl-2-(2H-1,2,3-triazol-2-yl)phenyl)(2-(((3-(trifluoromethyl)quinoxalin-2-yl)oxy)methyl)-7-azabicyclo[2.2.1]heptan-7-yl)methanone] | 6.31 | – | – | 6.52 |
| Cc1cccc(OCC2CC3CCC2N3C(=O)c2cccc(F)c2-n2nccn2)n1 (racemic) [Example 142, (±)-(3-fluoro-2-(2H-1,2,3-triazol-2-yl)phenyl)(2-(((6-methylpyridin-2-yl)oxy)methyl)-7-azabicyclo[2.2.1]heptan-7-yl)methanone] | 6.52 | 6.68 | – | – |
| O=C(c1ccccc1-c1cccs1)N1[C@H]2CC[C@@H]1[C@@H](COc1ccc(F)cn1)C2 (single isomer, unassigned) [Example 12B, ((1R*,2S*,4S*)-2-(((5-fluoropyridin-2-yl)oxy)methyl)-7-azabicyclo[2.2.1]heptan-7-yl)(2-(thiophen-2-yl)phenyl)methanone] | – | – | 8.30 | 8.52 |
| Cc1cc(C)nc(OCC2CC3CCC2N3C(=O)c2c(F)cccc2-c2ncccn2)n1 (racemic) [Example 43, (±)-(2-(((4,6-dimethylpyrimidin-2-yl)oxy)methyl)-7-azabicyclo[2.2.1]heptan-7-yl)(2-fluoro-6-(pyrimidin-2-yl)phenyl)methanone] | 7.04 | 6.65 | – | – |
| Cc1ccc(C(=O)N2C3CCC2C(COc2cnc4ccccc4n2)C3)c(-n2nccn2)n1 (racemic) [Example 168, (±)-(6-methyl-2-(2H-1,2,3-triazol-2-yl)pyridin-3-yl)(2-((quinoxalin-2-yloxy)methyl)-7-azabicyclo[2.2.1]heptan-7-yl)methanone] | – | 5.64 | 5.14 | – |
| Cc1ccc(OCC2CC3CCC2N3C(=O)c2ccc(C)nc2-n2nccn2)nc1 (racemic) [Example 135, (±)-(6-methyl-2-(2H-1,2,3-triazol-2-yl)pyridin-3-yl)(2-(((5-methylpyridin-2-yl)oxy)methyl)-7-azabicyclo[2.2.1]heptan-7-yl)methanone] | 5.41 | – | – | 5.27 |
| O=C(c1ccccc1-n1nccn1)N1C2CCC1C(COc1ccc(F)cn1)C2 (racemic) [Example 22, (±)-(2-(2H-1,2,3-triazol-2-yl)phenyl)(2-(((5-fluoropyridin-2-yl)oxy)methyl)-7-azabicyclo[2.2.1]heptan-7-yl)methanone] | 7.30 | 7.33 | – | – |
| Cc1ccc(-n2nccn2)c(C(=O)N2C3CCC2C(COc2nc(C)cnc2C)C3)c1 (racemic) [Example 20, (±)-(2-(((3,6-dimethylpyrazin-2-yl)oxy)methyl)-7-azabicyclo[2.2.1]heptan-7-yl)(5-methyl-2-(2H-1,2,3-triazol-2-yl)phenyl)methanone] | 6.44 | 6.57 | – | – |
| Cc1ccc2ccccc2c1C(=O)N1C2CCC1C(COc1ccc(F)cn1)C2 (racemic) [Example 25, (±)-2-(((5-fluoropyridin-2-yl)oxy)methyl)-7-azabicyclo[2.2.1]heptan-7-yl)(2-methylnaphthalen-1-yl)methanone] | – | – | 6.80 | 7.13 |
| Cc1noc(-c2ccccc2C(=O)N2C3CCC2C(COc2ccccn2)C3)n1 (racemic) [Example 127, (±)-(2-(3-methyl-1,2,4-oxadiazol-5-yl)phenyl)(2-((pyridin-2-yloxy)methyl)-7-azabicyclo[2.2.1]heptan-7-yl)methanone] | 5.96 | 6.72 | – | – |
| Cc1cc(C)nc(OCC2CC3CCC2N3C(=O)c2cccc(F)c2-n2nccn2)n1 (racemic) [Example 154, (±)-(2-(((4,6-dimethylpyrimidin-2-yl)oxy)methyl)-7-azabicyclo[2.2.1]heptan-7-yl)(3-fluoro-2-(2H-1,2,3-triazol-2-yl)phenyl)methanone] | – | 6.16 | 6.52 | – |
| O=C(c1cc(F)ccc1-c1ncccn1)N1C2CCC1C(COc1ccc(F)cn1)C2 (racemic) [Example 32, (±)-(5-fluoro-2-(pyrimidin-2-yl)phenyl)(2-(((5-fluoropyridin-2-yl)oxy)methyl)-7-azabicyclo[2.2.1]heptan-7-yl)methanone] | 6.91 | – | – | 7.68 |
| Cc1cc(C)nc(OCC2CC3CCC2N3C(=O)c2cc(F)ccc2-c2ncccn2)n1 (racemic) [Example 44, (±)-(2-(((4,6-dimethylpyrimidin-2-yl)oxy)methyl)-7-azabicyclo[2.2.1]heptan-7-yl)(5-fluoro-2-(pyrimidin-2-yl)phenyl)methanone] | 6.98 | – | – | 6.40 |
| Cc1ccc(OCC2CC3CCC2N3C(=O)c2cc(C)ccc2-n2nccn2)nc1 (racemic) [Example 19, (±)-(5-methyl-2-(2H-1,2,3-triazol-2-yl)phenyl)(2-(((5-methylpyridin-2-yl)oxy)methyl)-7-azabicyclo[2.2.1]heptan-7-yl)methanone] | 7.36 | 7.92 | – | – |
| Cc1ccc(OCC2CC3CCC2N3C(=O)c2cccc(F)c2-n2nccn2)nc1 (racemic) [Example 138, (±)-(3-fluoro-2-(2H-1,2,3-triazol-2-yl)phenyl)(2-(((5-methylpyridin-2-yl)oxy)methyl)-7-azabicyclo[2.2.1]heptan-7-yl)methanone] | 6.60 | 6.22 | – | – |
